Measurements taken from ChEMBL document CHEMBL1201862, “PubChem BioAssay data set” (2004).
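Where inhibition never reached the appropriate level, the endpoint shown equals the highest concentration tested. Otherwise, values were interpolated linearly from a five-concentration, 48-hour dose response in 96-well plates. GI50 is the concentration that inhibits growth by half.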 The source made the active and inactive calls. Rule as the data show it: active = GI50 up to about 1.1 µM and inactive = higher.

Experiments:
Experiment in all cases: DTP human tumour cell line panel, 48 h
SNB-75 = system: SNB-75
BT-549 = system: BT-549
M14 = system: M14
U-251 = system: U-251
NCI-H460 = system: NCI-H460
Malme-3M = system: Malme-3M
SR = system: SR
MCF7 = system: MCF7
HT-29 = system: HT-29
SNB-19 = system: SNB-19
SF-268 = system: SF-268
OVCAR-3 = system: OVCAR-3
HL-60 = system: HL-60
TK-10 = system: TK-10
SK-MEL-2 = system: SK-MEL-2
SF-295 = system: SF-295
Hs-578T = system: Hs-578T
KM12 = system: KM12
A549 = system: A549
MDA-MB-231 = system: MDA-MB-231

Measured: GI50

C=C1C(=O)CCC1C(=O)O (stereo not given)
inactive: SNB-75 11.8 µM | BT-549 > 100 µM | M14 > 100 µM | U-251 > 100 µM | NCI-H460 > 100 µM | Malme-3M > 100 µM | SR > 100 µM | MCF7 > 100 µM | HT-29 > 100 µM | SNB-19 > 100 µM | SF-268 > 100 µM | OVCAR-3 > 100 µM | HL-60 > 100 µM | TK-10 > 100 µM | SK-MEL-2 > 100 µM | SF-295 > 100 µM | Hs-578T > 100 µM | KM12 > 100 µM | A549 > 100 µM | MDA-MB-231 > 100 µM

O=C1C2=Cc3ccccc3CCN2c2ccccc21
inactive: SNB-75 > 100 µM | BT-549 13.8 µM | M14 16.1 µM | U-251 > 31.6 µM | NCI-H460 21.2 µM | Malme-3M 26.3 µM | SR 14.9 µM | MCF7 14.9 µM | HT-29 14.9 µM | SNB-19 46 µM | SF-268 > 50.8 µM | OVCAR-3 91.4 µM | HL-60 18.9 µM | TK-10 > 100 µM | SK-MEL-2 21 µM | SF-295 34.4 µM | Hs-578T 41 µM | KM12 26.7 µM | A549 49.2 µM | MDA-MB-231 > 41.9 µM

Cn1c(=O)c2c([nH]/c(=N/N=C/c3ccccc3C(=O)O)n2C)n(C)c1=O
inactive: SNB-75 > 100 µM | BT-549 > 100 µM | M14 > 100 µM | U-251 > 100 µM | NCI-H460 > 100 µM | Malme-3M > 100 µM | SR > 100 µM | MCF7 > 100 µM | HT-29 > 100 µM | SNB-19 > 100 µM | SF-268 > 100 µM | OVCAR-3 > 100 µM | HL-60 > 100 µM | TK-10 > 100 µM | SK-MEL-2 > 100 µM | SF-295 > 100 µM | Hs-578T > 100 µM | KM12 > 100 µM | A549 > 100 µM | MDA-MB-231 > 100 µM

COC(=O)c1cccc(OC)c1C#Cc1c(OC)cccc1OC
inactive: SNB-75 > 100 µM | BT-549 > 100 µM | M14 > 100 µM | U-251 > 100 µM | NCI-H460 > 100 µM | Malme-3M > 100 µM | SR > 100 µM | MCF7 > 100 µM | HT-29 > 100 µM | SNB-19 > 100 µM | SF-268 > 100 µM | OVCAR-3 > 100 µM | HL-60 > 100 µM | TK-10 > 100 µM | SK-MEL-2 > 100 µM | SF-295 > 100 µM | Hs-578T > 100 µM | KM12 69.7 µM | A549 > 100 µM | MDA-MB-231 > 100 µM

Cc1nc2sc3ccccc3n2c(=O)c1/N=N/c1ccc(Cl)cc1
inactive: SNB-75 > 100 µM | BT-549 > 100 µM | M14 > 100 µM | U-251 > 100 µM | NCI-H460 > 100 µM | Malme-3M > 100 µM | SR > 100 µM | MCF7 > 100 µM | HT-29 > 100 µM | SNB-19 > 100 µM | SF-268 > 100 µM | OVCAR-3 > 100 µM | HL-60 > 100 µM | TK-10 > 100 µM | SK-MEL-2 > 100 µM | SF-295 > 100 µM | Hs-578T > 100 µM | KM12 > 100 µM | A549 > 100 µM | MDA-MB-231 83.9 µM

COc1ccc(/[N+]([O-])=C/c2ccccc2OC(=S)S)cc1
inactive: SNB-75 62.4 µM | BT-549 23.2 µM | M14 25.5 µM | U-251 46.6 µM | NCI-H460 45.1 µM | Malme-3M > 100 µM | SR 28.4 µM | MCF7 33.6 µM | HT-29 22.4 µM | SNB-19 51.3 µM | SF-268 34.8 µM | OVCAR-3 28.4 µM | HL-60 24.3 µM | TK-10 80.7 µM | SK-MEL-2 28.2 µM | SF-295 33.8 µM | Hs-578T 33.7 µM | KM12 31 µM | A549 > 100 µM | MDA-MB-231 56.2 µM

O=C1CCCC2=C(N1)C(=O)C=CC2=O
inactive: SNB-75 43.8 µM | BT-549 16.7 µM | M14 39.8 µM | U-251 43.8 µM | NCI-H460 45.3 µM | Malme-3M 39.4 µM | SR 24.4 µM | MCF7 18.8 µM | HT-29 42.8 µM | SNB-19 44.1 µM | SF-268 46.2 µM | OVCAR-3 43.5 µM | HL-60 8.61 µM | TK-10 42.4 µM | SK-MEL-2 44 µM | SF-295 41.7 µM | Hs-578T 29 µM | KM12 25.6 µM | A549 > 63.1 µM | MDA-MB-231 16.7 µM

CC(=O)C1=C(c2ccccc2)N(C2OC(CO)C(O)C(O)C2O)C(S)=C(C#N)C1c1ccc(Cl)cc1 (stereo not given)
inactive: SNB-75 28.8 µM | BT-549 15.9 µM | M14 21 µM | U-251 17.9 µM | NCI-H460 21.9 µM | Malme-3M 24.8 µM | SR 29.1 µM | MCF7 20.1 µM | HT-29 31 µM | SNB-19 34.9 µM | SF-268 24.8 µM | OVCAR-3 21.6 µM | HL-60 42.4 µM | TK-10 52.7 µM | SK-MEL-2 12.9 µM | SF-295 35.9 µM | Hs-578T 25.8 µM | KM12 23.2 µM | A549 39.4 µM | MDA-MB-231 28.1 µM

COc1ccc2cc(NC(=O)N/N=C\c3ccc(Cl)cc3)ccc2c1
inactive: SNB-75 72.3 µM | BT-549 > 100 µM | M14 > 100 µM | U-251 41.2 µM | NCI-H460 50 µM | Malme-3M 34 µM | SR > 100 µM | MCF7 > 100 µM | HT-29 > 100 µM | SNB-19 46.2 µM | SF-268 44.1 µM | OVCAR-3 > 100 µM | HL-60 > 100 µM | TK-10 > 100 µM | SK-MEL-2 > 100 µM | SF-295 59.6 µM | Hs-578T 24 µM | KM12 > 100 µM | A549 > 100 µM | MDA-MB-231 27.5 µM

CCOC(=O)Cc1ccc(Nc2nc3cc(F)c(F)cc3nc2C(=O)OCC)cc1
inactive: SNB-75 81.8 µM | BT-549 55.6 µM | M14 35.1 µM | U-251 28.9 µM | NCI-H460 69.5 µM | Malme-3M > 100 µM | SR 26.5 µM | MCF7 37.6 µM | HT-29 53.7 µM | SNB-19 48.2 µM | SF-268 64.9 µM | OVCAR-3 47.2 µM | HL-60 39.3 µM | TK-10 > 100 µM | SK-MEL-2 22.9 µM | SF-295 73.1 µM | Hs-578T 64.7 µM | KM12 > 100 µM | A549 74 µM | MDA-MB-231 2.34 µM

Cc1cccc2c1[C@]13OC(C)[C@]4(C)CC5OC(=O)[C@@]1(C)[C@@H]5[C@]34C(=O)O2 (stereo not given in full)
inactive: SNB-75 > 100 µM | BT-549 > 100 µM | M14 > 100 µM | U-251 > 100 µM | NCI-H460 > 100 µM | Malme-3M > 100 µM | SR > 100 µM | MCF7 > 100 µM | HT-29 > 100 µM | SNB-19 > 100 µM | SF-268 > 100 µM | OVCAR-3 > 100 µM | HL-60 > 100 µM | TK-10 > 100 µM | SK-MEL-2 > 100 µM | SF-295 > 100 µM | Hs-578T > 100 µM | KM12 > 100 µM | A549 > 100 µM | MDA-MB-231 > 100 µM

CC1(C)C(c2ccccc2)=[N+]([O-])C(C)(C)N1O
inactive: SNB-75 > 10 µM | BT-549 > 10 µM | M14 > 10 µM | U-251 > 10 µM | NCI-H460 > 10 µM | Malme-3M > 10 µM | SR > 10 µM | MCF7 > 10 µM | HT-29 > 10 µM | SNB-19 > 10 µM | SF-268 > 10 µM | OVCAR-3 > 10 µM | HL-60 > 10 µM | TK-10 > 10 µM | SK-MEL-2 > 10 µM | SF-295 > 10 µM | Hs-578T > 10 µM | KM12 > 10 µM | A549 > 10 µM | MDA-MB-231 > 10 µM

COc1ccc(-c2c3ccccc3c(-c3ccc(OCCBr)cc3)c3ccccc23)cc1
inactive: SNB-75 43.9 µM | BT-549 > 100 µM | M14 > 100 µM | U-251 > 100 µM | NCI-H460 > 100 µM | Malme-3M > 100 µM | SR > 100 µM | MCF7 > 100 µM | HT-29 > 100 µM | SNB-19 > 100 µM | SF-268 > 100 µM | OVCAR-3 > 100 µM | HL-60 > 100 µM | TK-10 > 100 µM | SK-MEL-2 > 100 µM | SF-295 > 100 µM | Hs-578T > 100 µM | KM12 > 100 µM | A549 > 100 µM | MDA-MB-231 > 100 µM

O=C(N/N=C\c1ccc([N+](=O)[O-])cc1)c1ccccc1Nc1ccccc1C(=O)N/N=C/c1ccc([N+](=O)[O-])cc1
inactive: SNB-75 > 100 µM | BT-549 > 100 µM | M14 27.3 µM | U-251 > 100 µM | NCI-H460 > 100 µM | Malme-3M 39.4 µM | SR 79.3 µM | MCF7 > 100 µM | HT-29 > 100 µM | SNB-19 > 100 µM | SF-268 > 100 µM | OVCAR-3 > 100 µM | HL-60 89.7 µM | TK-10 > 100 µM | SK-MEL-2 > 100 µM | SF-295 > 100 µM | Hs-578T > 100 µM | KM12 > 100 µM | A549 > 100 µM | MDA-MB-231 25.8 µM
